Laboratory results reported in patent publication US20130129713A1, “METHOD OF ANTIGEN LOADING FOR IMMUNOTHERAPY” (IEO - ISTITUTO EUROPEO DI ONCOLOGIA S.R.L., priority 2010, published 2013).

Assays:
B16-OVA cells / DCs = experiment: In vitro cross-presentation assay (K^bOVA on CD11c+ DCs); assay type: cell-based, murine
Description: B16 and B16-OVA cells alone or together with DCs were treated or not with Salmonella and 24 hours later were stained with 5 μM of Carboxyfluorescein Succinimidyl ester (CF SE) for 20 minutes at 37° C. in the dark and then washed with cold PBS. Where stated, B16 and B16-OVA cells were treated with 10 μM Lactacystin (Sigma) overnight. […] After 24 hours cross-presentation of OVA peptide by DCs was analyzed by cytofluorimetry on CD11c^+ cells using an antibody that recognizes the OVA SIINFEKL peptide in association with MHC I (anti K^bOVA, 25-D1.16).

[1] = test system: GJs dependent intercellular communication, Mel-04 to human MoDC; experiment: FACS dye transfer assay, human cells: Mel-04 to MoDC; assay type: cell-based; details: co-culture in presence of heptanol (3.5 mM)
Text: FIG. 18. Salmonella infection upregulates GJs dependent intercellular communication in a melanoma-MoDC coculture model system. Human monocyte-derived DCs (MoDCs) were labeled with DDAO and then extensively washed.

[2] = test system: GJs-dependent intercellular communication, SK-Mel-24 to Mo-DC; assay type: cell-based, human
[3] = test system: GJs dependent intercellular communication between SK-Mel-24 cells; experiment: Dye transfer between SK-Mel-24 melanoma cells; assay type: cell-based, human; details: in the presence of heptanol
Description: FIG. 20. Salmonella infection up-regulates GJs dependent intercellular communication in SK-Mel-24 melanoma cell line. In this experiment the dye transfer was performed from melanoma to melanoma cells (SK-Mel-24). The increase in dye transfer from Salmonella infected to non-infected SK-Mel-24 cells is clear as compared to that from non-infected to non-infected cells. The right panel represents the same experiment performed in the presence of Heptanol, an inhibitor of GJ dependent intercellular communication. Data are expressed as percentage of SK-Mel-24 calcein positive cells.

[4] = test system: SK-Mel24 and other target cell lines; experiment: CTL generation and cytotoxicity (DELFIA cytotoxicity kit); assay type: cell-based, human; details: Mo-DC/SL-infected SK-Mel24 coculture in presence of Heptanol (3,5 mM)
Description: FIG. 24. SL-infected SK-Mel-24 loaded MoDC generate CTLs able to recognize epitopes shared among melanoma cells. CTL generated as described in materials and methods were tested for their antigen-specific cytotoxicity using DELFIA cytotoxicity kit. Target cells were: SK-Mel24, melanoma cell line, HLA negative cell line, HT29 (colon carcinoma).
Mo-DCs obtained from the same donor were loaded with SL-infected SK-Mel24 (SL-SK), and cultured, with purified CD8^+ T cells. Proliferating cells were expanded for 7-10 days in complete medium supplemented with 20 U/ml of rhIL-2. Cytotoxic properties of generated CTLs were tested against selected targets.
Purified CD8 T cells by magnetic cell sorting were cultured with MoDCs previously cocultured with infected or non-infected Sk-Mel24 in the presence or absence of 3,5 mM heptanol. After 24-48h cultures were supplemented with 20 U/ml of rhIL-2 and after 7-10 days CTLs were either subjected to a second round of stimulation or assayed for their cytotoxic activity. Melanoma specific cytotoxicity was measured by using DELFIA cytotoxicity Kit (Perkin Elmer) and lysosomal-associated membrane protein-1 (CD107a) mobilization was performed by using BD FastImmune CD107a reagent (BD Bioscience), according to manufacturer's instructions.

[5] = test system: gap junctions between B16 cells and DCs; experiment: FACS dye transfer assay, murine cells (calcein-AM from B16 to DDAO-labeled DCs); details: co-culture in presence of heptanol (3.5 mM)
Description: B16 cells were infected or not with Salmonella, pulsed with the GJ-diffusible dye Calcein-AM and incubated with DDAO-labeled DCs, in the presence or absence of heptanol. One h later the % of cells double positive for DDAO and Calcein-AM, representing the DCs that received the dye from tumor cells, was evaluated by FACS (Black bars).
FACS assay murine cells. DCs were labeled with 10 μM of the dye 7-hydroxy-9H(I,3-dichloro-9,9-dimethylacridin-2-one) (DDAO, Molecular Probes) for 15 minutes at R.T. in the dark and then extensively washed with PBS. B16 cells were infected or not with Salmonella and after 24 hours were labeled with 0.5 μM calcein-acetoxymethylester (calcein-AM; Molecular Probes) in serum-free medium for 30 minutes at 37° C. and then co-cultured with DCs at a ratio of 2:1. Calcein transfer between tumor cells and DCs was evaluated by cytofluorimetry. The co-culture of B16/DCs was carried out in the presence or absence of (3.5 mM) Heptanol (Sigma).

[6] = test system: Connexin (Cx) 43 expression in B16 cells; experiment: Cx43 expression in B16 cells after infection or PAMP/IFN-g treatment (immunofluorescence, Western blot); assay type: cell-based, murine
Description: Single bacterial colonies were grown overnight and restarted the next day to reach an A600 nm=0.6 corresponding to 0.6×10^9 CFU/mL. Murine and human melanoma cells were incubated with bacteria for 2 h, at a ratio of 1:50 (cell/bacteria), in the appropriate medium without antibiotics. Cells were washed with PBS and incubated in medium supplemented with 50 μg/mL gentamicin for 12 or 24 h in order to kill extracellular bacteria, with or without IFN-g(100 U/ml).
B16 cells and DC1 DCs were plated in 6-well plates (2×10^5 cells/well) and grown for 18 h. Cells were incubated with PAMPs in complete medium with or without IFN-g(100 U/ml) for 24 hours. The PAMPs used were LPS (1 μg/ml, Sigma), flagellin (0.1 μg/ml, Alexis) and LTA (10 μg/ml, Sigma).
24 hour after infection or treatment with PAMPs, melanoma cells were scraped in ELB buffer (250 mM NaCl, 0.5% Nonidet P-40, 50 mM HEPES [pH 7.0], 5 mM EDTA) containing 1 mM dithiothreitol, 0.5 mM phenylmethylsulfonyl fluoride, and protease inhibitors. Cell lysates were run on SDS page and transferred on Immobilon PVDF membranes. Membranes were probed with a polyclonal rabbit-anti-Cx43 antibody (Sigma) or with a monoclonal mouse-anti-Cx43 antibody (Zymed) or with mouse-anti-vinculin antibody (Sigma) overnight at 4° C. and incubated with anti-mouse horseradish peroxidase-conjugated IgG (Calbiochem) or with anti-rabbit horseradish peroxidase-conjugated IgG (BioRad) antibodies for 1 h. Visualization was carried out with ECL (GE Healthcare). Bands were quantified by densitometry using NIH Image-based software Scion Image (Scion Corporation).
B16 cells were plated onto coverslips (5×10^4 cells/coverslip) and grown for 18 h. Cells were infected with Salmonella. After 24 hours the cells were fixed in 4% (w/v) paraformaldehyde in PBS for 15 min. Blocking and permeabilization were carried out incubating the cells in PBS, 3% (w/v) bovine serum albumin (BSA) and 0.1% (w/v) Triton X-100 for 20 min. The cells were then stained with polyclonal rabbit-anti-Cx43 primary antibody (Sigma, 1:2000) and with an anti-rabbit-Cy3-conjugated secondary antibody (Jackson ImmunoResearch laboratories, 1:400). Cell nuclei were stained with 4′,6-diamidino-2-phenylindole. Confocal microscopy was carried out using a Leica TCS-SP2 (Leica Microsystem).

[7] = B16 cells incubated with purified bacterial components, Western blot 24 h

Molecule: CCCCCCCO [heptanol]
- presentation of OVA peptide (K^bOVA) by DCs (B16-OVA cells / DCs; infected B16-OVA + mature DCs 24 h, Heptanol (3.5 mM)): completely abolished the presentation of the peptide
- calcein dye transfer from Mel-04 to MoDC [1]: capable of inhibiting the transfer
- calcein transfer from SK-Mel-24 to Mo-DC [2]: most of the calcein transfer was inhibited
- dye transfer from infected to non infected SK-Mel-24 cells [3]: inhibited
- cytotoxicity of generated CTLs against the specific target [4]: unable to lyse the specific target
- transfer of calcein from B16 cells to DCs [5]: completely abolished the transfer of calcein

Molecule: CC(=O)N[C@@H](CSC(=O)[C@]1([C@@H](O)C(C)C)NC(=O)[C@H](C)[C@@H]1O)C(=O)O [lactacystin]
- DC surface exposure of the K^b-OVA complex (B16-OVA cells / DCs; B16-OVA pretreated with 10 μM Lactacystin overnight): prevented the DC surface exposure of the K^b-OVA complex

Molecule: flagellin
- Cx43 expression [6, 7]: same upregulation of Cx43

Molecule: lipoteichoic acid [LTA]
- Cx43 expression [6, 7]: same upregulation of Cx43

Molecule: lypopolysaccharide [LPS]
- Cx43 expression [6, 7]: same upregulation of Cx43

B1: IFN-g: inflammatory cytokine gamma-IFN (protein, UniProt P01579 24-161, looked up)
Interferon gamma: QDPYVKEAENLKKYFNAGHSDVADNGTLFLGILKNWKEESDRKIMQSQIVSFYFKLFKNFKDDQSIQKSVETIKEDMNVKFFNSNKKKRDDFEKLTNYSVTDLNVQRKAIHELIQVMAELSPAAKTGKRKRSQMLFRG
- Cx43 expression ([6]; B16 cells, IFN-g alone (100 U/ml)): upregulated Cx43
- Cx43 expression, combination effect ([6]; B16 cells, IFN-g together with Salmonella or bacterial components): acted in synergy with the bacterial components
